This is an account of results in ChEMBL document CHEMBL3507680, “University of Dundee, Gates Library screen for HepG2 cell viability”.

A short description of the data set: Human HepG2 cell viability assay in 384 well format. In kind it is toxicity, cell-based. More on the design: dose 125 nL, time 70.5 hour; cytotoxicity at 70.5 h: concentration not given beside the values. The conditions noted are these: HepG2 cells, read-out: Inhibition.
With `CC(C)NC(=O)N1CCC(n2ccc(C(F)(F)F)n2)CC1`, the cytotoxicity at 70.5 h stood at 1.15%. Turning to `CN(CCC(F)(F)F)C(=O)C1CCCN1C(=O)OC(C)(C)C` (stereo not drawn), the cytotoxicity at 70.5 h stood at 0.473%. For the compound `CCc1n[nH]c(C2CN(CC(=O)NCCc3ccsc3)CCO2)n1` (stereo not drawn), the cytotoxicity at 70.5 h was -3.93%. `c1csc(-c2nc(CN3CCCC3Cn3cncn3)co2)c1` (stereo not drawn): the cytotoxicity at 70.5 h was -10.5%. The same measure for `Cc1nc(CN2CCc3cncnc3C2)oc1C`: -5.69%; for `Cc1ccn(-c2ccccc2NCc2ccccn2)n1`: -8%. Regarding `Cc1ccc(F)c(C(=O)N2CCN(S(C)(=O)=O)[C@@H](C)C2)c1`, the cytotoxicity at 70.5 h is -3.67%.

In the case of `Cc1cc(F)cc(S(=O)(=O)NCCCN2CCC(O)CC2)c1`, the cytotoxicity at 70.5 h came to 11.3%. For `Cc1cc(F)c(S(=O)(=O)NCCCN2CCC(O)CC2)cc1F`, the cytotoxicity at 70.5 h was 7.32%. With `O=C(C(CNCc1ccncc1)c1ccccc1)N1CCOCC1` (stereo not drawn) the figure was -5.58%; with `NC(=O)C1CCN(Cn2nc(-c3ccc(F)cc3)oc2=O)CC1`, 5.9%. For `Cc1cc(CN(C)C(=O)C2CCCN(C(=O)c3ccc(Cl)cc3)C2)no1` (stereo not drawn), the cytotoxicity at 70.5 h is -10.8%. As to `Cc1ccc(-n2nnc(CC(=O)N3CCSCC3)c2C)cc1`, the cytotoxicity at 70.5 h is -12.8%.

For the compound `CCOc1cc(CN(C)CCOC)ccc1OC(F)F`, the cytotoxicity at 70.5 h stood at 12.4%.

Consider `Cc1oc(-c2ccsc2)nc1CC(=O)NCCS(C)(=O)=O`, for which the cytotoxicity at 70.5 h is -12.9%. As for `C[C@@H]1C[C@@H]2CCN(Cc3ccccn3)C[C@H]2O1`, the cytotoxicity at 70.5 h was -5.42%. The same measure for `Cc1cccc(CN2CC[C@H]3C[C@H](C)O[C@@H]3C2)n1`: -4.58%; for `O=C(CO)N1C[C@H]2CN(Cc3cccc(F)c3)C(=O)[C@H]2C1`: -5.34%; for `Cc1nccc([C@@H]2C[C@@H]3CCN(Cc4c(C)noc4C)C[C@H]3O2)n1`: -10.7%. As for `O=C(C1CCOC1)N1CCC2(CCN(Cc3nccs3)C2)CC1` (stereo not drawn), the cytotoxicity at 70.5 h was -10.1%.

Consider `Cc1cnc(C(=O)N2C[C@H]3CN(Cc4cccc(F)c4)C(=O)[C@H]3C2)cn1`, for which the cytotoxicity at 70.5 h is 10.5%. Take `CN1C(=O)CC(c2cnn(C)c2)C12CCN(C(=O)c1cscn1)CC2` (stereo not drawn): the cytotoxicity at 70.5 h was -2.36%.

Turning to `Cc1oncc1C(=O)N1CCC2(CC1)C(c1cnn(C)c1)CC(=O)N2C` (stereo not drawn), the cytotoxicity at 70.5 h is -9.68%. Regarding `Cc1cnc(C(=O)N2C[C@@H](NS(C)(=O)=O)[C@@H]3OCCC[C@@H]32)cn1`, the cytotoxicity at 70.5 h was -13.4%. Regarding `Fc1cnc(N2CCCC3(CCN(Cc4nccs4)C3)C2)nc1` (stereo not drawn), the cytotoxicity at 70.5 h worked out at 15%.

As for `c1ccc(NCc2cnc3n2CCN(C2CCOC2)CC3)nc1` (stereo not drawn), the cytotoxicity at 70.5 h was found to be 15.7%. Consider `CS(=O)(=O)N[C@@H]1CN(C(=O)c2ccccn2)C[C@@H]2CCCO[C@@H]21`, for which the cytotoxicity at 70.5 h is -9.33%. Turning to `c1nc2n(c1CN1CCCC1)CCN(C1CCOCC1)CC2`, the cytotoxicity at 70.5 h is -7.69%. As for `c1ccc(COCC2CN(Cc3ccsc3)Cc3nccn3C2)nc1` (stereo not drawn), the cytotoxicity at 70.5 h is -7.86%. Consider `CS(=O)(=O)NCc1ncn2c1CN(C(=O)C1CCCCC1)CCC2`, for which the cytotoxicity at 70.5 h is -4.09%. Regarding `CS(=O)(=O)NCc1ncn2c1CN(CCN1CCCC1)CCC2`, the cytotoxicity at 70.5 h was -6.23%. The same measure for `Cc1ccc(NC(=O)N2CC(C(=O)NC(C)C)C3(CCOCC3)C2)cc1` (stereo not drawn): -6.28%; for `Cc1ccc(C(=O)N2C[C@@H]3OCCN(C(C)C)[C@@H]3C2)cn1`: -11.3%. With `CC(C)NC(=O)C1CN(C(=O)COc2ccccc2)CC12CCOCC2` (stereo not drawn), the cytotoxicity at 70.5 h was -9.68%. Turning to `CN(C)C(=O)n1c(C(=O)NC(C)(C)CO)cc2c1c1ccccc1n2C`, the cytotoxicity at 70.5 h is -6.99%.

For `CC(C)NC(=O)C1CN(C(=O)Nc2ccc(F)cc2)CC12CCOCC2` (stereo not drawn), the cytotoxicity at 70.5 h was -6.35%.

As for `CC(C)NC(=O)C1CN(C(=O)Nc2cccc(F)c2)CC12CCOCC2` (stereo not drawn), the cytotoxicity at 70.5 h is -6.98%. With `O=C(c1ccnnc1)N1CCC2(CC1)CN(c1ccccn1)CCO2` the figure was -10.9%. As to `CC(C)N1CCO[C@H]2CN(C(=O)c3ccncc3)C[C@H]21`, the cytotoxicity at 70.5 h amounted to 11.9%. As for `CCC1=N[C@@]2(CC[C@@H]3CN(C(=O)NCc4cccc(F)c4)C[C@@H]32)C(=O)N1`, the cytotoxicity at 70.5 h is -5.99%. For the compound `O=C(N1CCOCC1)N1CCC2(CC1)CN(c1ccccn1)CCO2`, the cytotoxicity at 70.5 h was -6.33%. The same measure for `COCCN1CCOCC12CCN(C(=O)c1c[nH]c3ccccc13)CC2`: -13.9%; for `CC(=O)N1CCC2(CCN(C(=O)c3cccc(C(F)(F)F)c3)CC2)C1`: 7.98%. The same measure for `O=C(NC1CCC1)C1=NOC2(CCN(Cc3ccco3)C2)C1` (stereo not drawn): 6.54%; for `C=C(C)COc1cccc(CNC(COC)c2ccnn2C)c1` (stereo not drawn): 2.53%; for `O=C1CCC2(CCN(CC[C@H](O)c3ccccc3)CC2)CN1CCO`: 1.6%.

On to `COc1ccc2c(c1)OCC(Cc1cnccc1N)C2` (stereo not drawn), for which the cytotoxicity at 70.5 h was -3.68%.

Turning to `Cc1cc(C2CCCN2C(=O)CN2C(=O)OC(C)(C)C2=O)on1` (stereo not drawn), the cytotoxicity at 70.5 h is -2.6%. As for `CCCS(=O)(=O)N1CCC2(CCCN(Cc3cccc(F)c3F)C2=O)C1` (stereo not drawn), the cytotoxicity at 70.5 h was -7.34%. `COCc1cn(C2CCN(CCC(C)c3ccccc3)CC2)nn1` (stereo not drawn): the cytotoxicity at 70.5 h was -12.1%. Regarding `Cc1cc(C)n(CC(C)NC(=O)c2cc(C(C)C)on2)n1` (stereo not drawn), the cytotoxicity at 70.5 h is -4.49%. As for `Cc1cc2nc(C(C)C)cc(NCCc3ccncc3)n2n1`, the cytotoxicity at 70.5 h was -13.2%. In the case of `CCNC(=O)[C@@H]1C[C@@H](NC(=O)c2ccsc2)CN1CCCSC`, the cytotoxicity at 70.5 h was -3.62%. With `O=C(O)c1cccc(CC2CCN(c3cnccn3)CC2)c1` the figure was -2.92%. The same measure for `CC(c1ccon1)N(C)C(=O)C1CCN(C(=O)C2CC2)CC1` (stereo not drawn): -4.84%; for `c1cncc(CN2CCc3ncnc(NCCc4c[nH]cn4)c3CC2)c1`: -1.46%. `CCN1CC2(CCC1=O)CCN(Cc1cc(F)ccc1Cl)CC2`: the cytotoxicity at 70.5 h is -0.396%. With `CC(C)(N)c1cn(C2CCN(c3ncccc3Cl)CC2)nn1`, the cytotoxicity at 70.5 h was -9.17%. On to `CCc1cnc(NCCS(=O)(=O)CC(C)C)nc1`, for which the cytotoxicity at 70.5 h was 19.7%. Take `Cc1ccc(N2CCN(C(=O)[C@@H]3CCC(=O)N3)CC2=O)cc1`: the cytotoxicity at 70.5 h was -7.74%. In the case of `O=C(C1CCC1)N1CCN(Cc2ccc(F)cc2)[C@H]2CS(=O)(=O)C[C@H]21`, the cytotoxicity at 70.5 h is -3.17%. As to `c1ccc(CCc2n[nH]c(CCN3CCCCC3)n2)cc1`, the cytotoxicity at 70.5 h is -13.4%. `O=C(NCCc1c[nH]cn1)c1ccc(S(=O)(=O)NC2CCCC2)cc1`: the cytotoxicity at 70.5 h was -1.62%. `CCn1ncc2c1CN(C(=O)c1cscn1)CC2COC` (stereo not drawn): the cytotoxicity at 70.5 h was -7.98%.

As to `CN(C)C(=O)CN1C[C@H]2CN(Cc3cccc(F)c3)C(=O)[C@H]2C1`, the cytotoxicity at 70.5 h was -5.27%. With `O=C(c1cccnc1)N1C[C@H]2CN(Cc3cccc(F)c3)C(=O)[C@H]2C1`, the cytotoxicity at 70.5 h was -3.89%.

As for `Cc1ccc(CN2CCC3(CCN(c4cnn(C)c4)C3=O)C2)s1` (stereo not drawn), the cytotoxicity at 70.5 h came to 13.4%. Turning to `COc1ccc(CN2C[C@@H]3OCCN(C)[C@@H]3C2)cc1`, the cytotoxicity at 70.5 h is -4.77%. For the compound `Cn1cc(N2CCC3(CCCN(Cc4ccc(F)cc4)C3)C2=O)cn1` (stereo not drawn), the cytotoxicity at 70.5 h is -12.2%. With `O=C(c1ccccn1)N1C[C@H]2CCC[C@@]2(COCC2CCOCC2)C1`, the cytotoxicity at 70.5 h is -10.8%. Regarding `COc1cc(N2CC[C@@H](O)[C@@H]2Cc2cccnc2)ncn1`, the cytotoxicity at 70.5 h was -8.63%. Take `O=C1[C@H]2CN(Cc3ccc(F)cc3)C[C@H]2CN1c1ccsc1`: the cytotoxicity at 70.5 h is -13.2%. As to `O=C(c1ccno1)N1CC[C@@H]2O[C@H](COCCN3CCCC3)CC[C@@H]21`, the cytotoxicity at 70.5 h stood at 9.33%. With `COc1ccc(CN2CCC3(CCCN(c4ncc(F)cn4)C3)C2)cc1` (stereo not drawn) the figure was 50.3%; with `COc1cc(N2C[C@H]3CCC[C@@H](CN(C)C4CC4)[C@H]3C2)ncn1`, -1.7%.

As to `COCCNC(=O)[C@@]12CCO[C@@H]1CCN(Cc1ccc(OC)cc1)C2`, the cytotoxicity at 70.5 h is -5.1%. `Cc1ccc(C(=O)N2CCC3(CC2)CN(c2ccccn2)CCO3)cc1`: the cytotoxicity at 70.5 h is -8.31%. As for `COCCN1CCOCC12CCN(C(=O)c1ccoc1)CC2`, the cytotoxicity at 70.5 h is -4.83%. As to `Cc1occc1C(=O)N1C[C@@H]2OCCN(C(C)C)[C@@H]2C1`, the cytotoxicity at 70.5 h is 5.55%. As to `Cc1oncc1C(=O)N1CCOCC2(CCN(c3ccccn3)C2)C1` (stereo not drawn), the cytotoxicity at 70.5 h is -3.11%. As for `Cc1ccc(N2CCO[C@H]3CN(Cc4ccc(F)cc4)C[C@H]32)nn1`, the cytotoxicity at 70.5 h is -7.45%. With `Fc1ccc(CN2C[C@@H]3OCCN(CC4CCCO4)[C@@H]3C2)cc1` (stereo partly drawn), the cytotoxicity at 70.5 h stood at 11%.

Consider `c1cc(COC[C@]23COC[C@H]2CN(Cc2ccsc2)C3)ccn1`, for which the cytotoxicity at 70.5 h came to 7.32%. The same measure for `COc1cccc(CN2C[C@@H]3COC[C@]3(COCc3ccccn3)C2)c1`: 2.25%; for `Fc1cnc(N2CCCC3(CCN(Cc4ccco4)C3)C2)nc1` (stereo not drawn): 10.4%. As for `Fc1ccc(CN2Cc3nccn3CC(CN3CCOCC3)C2)cc1` (stereo not drawn), the cytotoxicity at 70.5 h is -8.01%. On to `Cc1ccc(CN2Cc3nccn3CC(CN(C)C)C2)s1` (stereo not drawn), for which the cytotoxicity at 70.5 h was -7.65%. For the compound `Cc1ccc2c(n1)N(Cc1cccnc1)CCN(C(=O)C1CC1)C2`, the cytotoxicity at 70.5 h amounted to 11.2%. `CN(C)CC1CN(Cc2ccc(F)cc2)Cc2nccn2C1` (stereo not drawn): the cytotoxicity at 70.5 h was -4.49%. As to `CC(C)N1CCO[C@H]2CN(C(=O)c3ccccn3)C[C@H]21`, the cytotoxicity at 70.5 h was -7.58%. Turning to `COCCN(C)C1COC2(CCN(Cc3cccc(F)c3)CC2)C1` (stereo not drawn), the cytotoxicity at 70.5 h came to 10.1%.

As for `c1cc(CN2C[C@@H]3OCCN(CC4CCCO4)[C@@H]3C2)ccn1` (stereo partly drawn), the cytotoxicity at 70.5 h amounted to 8.75%. For the compound `CN(Cc1ccncc1)C1COC2(CCN(Cc3ccco3)CC2)C1` (stereo not drawn), the cytotoxicity at 70.5 h was 9.94%.
